Measurements: US12383196B2, “Treatment of depression using machine learning” (The Board of Trustees of the Leland Stanford Junior …, priority 2018, dated 2025)

System: medication-free depressed outpatients
Experiment: EMBARC placebo-controlled randomized clinical trial, treatment response on HAMD17
Assay type: in vivo, human
Conditions: for response rate (≥50% reduction in symptoms): sertraline arm, 8 weeks, 50-200 mg
Excerpt: Data were drawn from four studies. Establishment of the treatment-predictive rsEEG signature was accomplished with data from the Establishing Moderators and Biosignatures of Antidepressant Response in Clinic Care (EMBARC) study^21. EMBARC is the largest neuroimaging-coupled placebo-controlled randomized clinical trial (RCT) in depression to date and involved randomization of 309 medication-free depressed outpatients to receive either the selective serotonin reuptake inhibitor (SSRI) sertraline or placebo for eight weeks (FIG. 8). Of these, 228 had high-quality rsEEG data. We then compared the predictive utility of this algorithm against conventional machine learning approaches on the EEG data as well as a predictive model built on clinical data alone. The generalizability of the antidepressant-predictive signature was then tested in a second independent sample of depressed patients (N=72), for whom we had historical information about treatment response during the current depressive episode. A third independent sample of depressed patients (N=24) was used to assess two features of the treatment-predictive rsEEG signature: convergent validity and neurobiological significance. […] We also tested in the third sample whether regions that were prominent in the rsEEG signature reflected individual differences in cortical responsivity, as directly assessed through single pulse transcranial magnetic stimulation (TMS) during concurrent EEG recording. […]
To simply visualize how the SELSER predictions in FIG. 2A could be used for treatment stratification, we partitioned the patients in each arm by applying an arbitrary median split on the cross-validated predicted HAMD17 score changes derived from the sertraline alpha REO model. We then calculated the rates of treatment response (≥50% reduction in symptoms) for the portion of patients above the median (“high”) and below the median (“low”), respectively, based on the model-predicted HAMD17 change scores (FIG. 2E). […]

Structure (SMILES): CN[C@H]1CC[C@@H](c2ccc(Cl)c(Cl)c2)c2ccccc21 [sertraline]
- efficacy versus placebo (only for patients at the higher range of predicted HAMD17 score changes): superior to placebo
- response rate (≥50% reduction in symptoms) (high group (above median of cross-validated predicted HAMD17 score change, sertraline alpha REO model)): 65%
- response rate (≥50% reduction in symptoms) (low group (below median of cross-validated predicted HAMD17 score change, sertraline alpha REO model)): 20%
